# According to patent US20240059739A1, “PEPTIDES FOR INCREASING DRUG DELIVERY TO CANCER” (Chapman University, priority 2022, published 2024):
# Like-named read-outs stand apart in the source and are kept apart here.
# Key:
# [1] = system: human melanoma cell lines (A375, Sk-mel-28, wm115) compared to normal human HEK-293 cells; assay: Peptide array-whole cell binding assay (CyQUANT fluorescence); assay type: cell-based; conditions: average fluorescent intensity of melanoma cells (A375, Sk-mel-28, wm115) bound to peptide divided by that of HEK-293 cells bound to same peptide
# Description: Peptide array synthesis. Fifty-three peptide sequences were synthesized in duplicate on derivatized cellulose membrane (Intavis, Germany) using a ResPep SL Autospot robot. The detailed method was explained previously (Ahmed et al. Anal Chem. 82:7533-7541, 2010; Hossein-Nejad-Ariani et al. Sci Rep. 9:2723, 2019). Briefly, the sequences of peptides were entered in the robot software, and 384 spot synthesis mode was selected for this library. First, the membrane was dipped in DMF for an hour followed by transfer and support to the holder of the robot on filter paper. Then the membrane was washed with ethanol and subjected to a vacuum to remove any bubbles under the membrane. The Fmoc strategy was used for peptide synthesis. DIC and Oxyma pure were used as coupling reagent and racemization suppressor, respectively. After each coupling, capping of unreacted amino acids was done using acetic anhydride (3%), followed by 20% piperidine for Fmoc deprotection. The C-terminal end of all peptides were bound to the membrane. Following the synthesis, the membrane was dipped in deprotection solution containing 15 mL TFA, 15 mL DCM, 900 μL TIPS, and 600 μL water, and kept for 3 h at room temperature. Next, membranes were thoroughly washed with DCM, DMF, and ethanol. Finally, they were air dried and kept in a sealed bag at −20° C. until use.
# Peptide array cell binding assay. The sequential steps of the assay are as described in a previous publication (Ahmed et al. 2010; Soudy et al. J Med Chem. 54:7523-7534, 2011). The membrane was dipped in ethanol for 30 sec to remove any precipitation of hydrophobic peptides. Then the membrane was dipped in sterile PBS at pH 7.4 for 30 min. The cells (75×10^3 cells/mL) were seeded directly on the membrane in a sterile plate and incubated at 37° C. for 4 h. After washing off the unbound cells with sterile PBS, pH 7.4, the membrane was frozen at −80° C. for 2 h. Subsequently, it was defrosted at room temperature and incubated in CyQUANT solution at 37° C. for 30 min following the manufacturer's protocol. The membrane was then washed with sterile PBS and air-dried.
# Membranes were scanned using the ChemiDoc™ XRS+system (Bio-Rad) to analyze the fluorescence intensity of each spot. The setting was adjusted based on the excitation and emission wavelength of the CyQUANT dye at 465 nm and 535 nm, respectively. The fluorescence intensity (FI) was normalized by the FI of non-cancerous HEK-293 cells.
# A library of 53 peptides was synthesized in an array format on a cellulose membrane using SPOT synthesis (Table 1). The peptide library was designed starting with five lead cancer cell targeting peptides, Arg peptide (1, Table 1), p160 analogue (11), RGD (16), GE11 (20), and LSD (37). Conservative substitutions, deletion from the N- or C-terminus, alanine scan, and scrambling of amino acids were used to design the analogues for the library. The peptides were screened for specific binding to three human melanoma cell lines. The cells were incubated with the cellulose membranes with conjugated peptides followed by incubation with CyQUANT fluorescence dye. A brief schematic for the peptide array-whole cell binding assay for screening peptides with high affinity for melanoma cells is shown in FIG. 2A. The relative cell adhesion capacities of the peptides to A375 (FIG. 2B), Sk-mel-28 (FIG. 2C), and wm115 were estimated based on the fluorescence of the bound melanoma cells compared to normal human HEK-293 cells.
# [2] = system: A375 melanoma cells; assay: In vitro cytotoxicity detected by MTT colorimetric assay; assay type: cell-based, human
# Method: The bar represents the average fluorescence density of three cell lines (A375, Sk-mel-28, and wm3211 cells) detected by fluorescence-activated cell sorting (FACS) analysis. The cells were incubated with FITC-labeled peptide for […] at 37° C. (0.5 μM, grey bar; 1 μM, dark bar). The control is cells incubated with FITC alone. […] Cells were either treated with DOX or co-treated with DOX and KK-11 (1 μM) for 72 h (KK-11+DOX) or pretreated with KK-11 for 4 h, then washed away following a DOX 72 h treatment (KK-11 to DOX). Control is DMSO or KK-11 alone. Cell viability was detected by a MTT colorimetric assay. Statistical analysis was performed with a student's t-test, and error bars denote mean±SD; **, p<0.01; ***, p<0.001 compared to DOX alone. […] Cells were treated with MAC-3-190 at various concentrations with or without 1 μM KK-11 for 72 h. Cell viability was detected by MTT assay. The assays were repeated independently at least three times.
# In vitro cytotoxicity detected by MTT colorimetric assay. Cells were seeded in a 96-well plate and allowed to adhere overnight prior to adding the compound. After 72 h of treatment in serum-free media, an MTT solution was added to each well to give a final concentration of 0.5 mg/mL and was incubated for 3 h. Formed crystals were solubilized, and the absorbance was measured at 595 nm.
# [3] = system: human melanoma A375 tumor xenografts and organs; assay: In vivo and ex vivo imaging of biodistribution in mice bearing A375 xenografts; design: species or system athymic nude mice
# Method: FIG. 4A and FIG. 4B-1 and FIG. 4B-2 show in vivo and ex vivo organ distribution images of VivoTag 680 XL-labeled D-aa KK-11 in athymic nude mice bearing human melanoma A375 tumors. Saline or VivoTag-KK-11 in a dose of 8 μg per mouse was injected into the mice via the tail vein (n=2 for each time point).
# The top panels represent the scanned images of the tumor section area in coronal views. The bottom-row pictures display the fluorescence image in trans-axial views: arrows point to the spine, and circles mark the xenograft tumors.
# Organs including tumor xenografts (T), liver (L), spleen (S), heart and lungs (H+L), kidneys (K), and brain (B) were excised and imaged using the IVIS Spectrum imaging system. Representative fluorescence images of different organs show peptide distribution at different time points as indicated.
# Ex vivo and in vivo imaging. The study was carried out in compliance with Animal Research: Reporting of In Vivo Experiments (ARRIVE) guidelines. All the animal procedures were approved by the Institutional Animal Care and Use Committee (IACUC) at Chapman University and conducted in compliance with the policies of Chapman University, and federal, state, and local animal welfare authorities. Male and female athymic nude mice (4-6 weeks old) were kept (5 in each cage) in a pathogen-free environment. Approximately 10^6 human melanoma A375 cells (0.1 mL in normal saline), mixed with 0.1 mL cold Matrigel (#354248; Corning, Corning, NY), were injected subcutaneously in the flank. The tumor size was measured with a caliper, and body weight was recorded once a week. When the tumor size reached approximately 800-1000 mm^3 as calculated using the following formula: [Length×(Width^2)]/2 (in mm), mice were processed for in vivo or ex vivo imaging.
# For in vivo imaging, normal saline or VivoTag-KK-11 at a dose of 8 μg per mouse was injected into the mice via the tail vein (n=2 for each time point). The animals were then scanned at different time intervals (0.5, 2, 6, and 24 h) using an IVIS Spectrum in vivo imaging system (PerkinElmer, Waltham, MA). The mice were imaged for 0.5 sec, 10 bin, level B at an emission wavelength of 688±5 nm. Imaging was limited to no more than once a day and was conducted under continuously maintained isoflurane. Mice were maintained on alfalfa-free diets to minimize the background fluorescence. All the study animals survived through the in vivo imaging procedure.
# For ex vivo imaging at defined time intervals (5, 15, 30 min, followed by 1, 1.5, 2, 3, 4, 6, 24, and 48 h) following fluorescence conjugate injection, animals were euthanized via carbon dioxide inhalation (n=2 for each time point); tumor, liver, spleen, heart, lungs, brain, and kidneys were collected and briefly rinsed with saline. The organs were then imaged for 0.5 sec, 10 bin, level B at an emission wavelength of 688±5 nm using an IVIS Spectrum imaging system.
# [4] = in vivo IVIS CT-fluorescence imaging of live mice
compound,measurement,setting,value
AHWYGYTPQNVI [Peptide 23],Fluorescence Ratio,[1],1.31
YHWYGTPQNVI [Peptide 20],Fluorescence Ratio,[1],1.20
RVPWLEAPYA [Peptide 14],Fluorescence Ratio,[1],1.42
WQTNYIHPYVYG [Peptide 21],Fluorescence Ratio,[1],1.21
CLSDGKRAC [Peptide 48],Fluorescence Ratio,[1],1.12
GRRPRPRPRPW [Peptide 2],Fluorescence Ratio,[1],1.60
WLSDGKRKC [Peptide 53],Fluorescence Ratio,[1],1.12
CASDGKRKC [Peptide 42],Fluorescence Ratio,[1],1.25
CLSDGRRKC [Peptide 51],Fluorescence Ratio,[1],1.32
CLSAGKRKC [Peptide 44],Fluorescence Ratio,[1],1.44
YHWYGYTPQNVA [Peptide 33],Fluorescence Ratio,[1],1.35
"COc1cccc2c1C(=O)c1c(O)c3c(c(O)c1C2=O)C[C@@](O)(C(=O)CO)C[C@@H]3O[C@H]1C[C@H](N)[C@H](O)[C@H](C)O1 [DOX, doxorubicin]",viability at 0.5 µM,"[2]; Homo sapiens, A-375, 72 h, DOX 0.5 μM alone, 72 h, A375, read-out: cell viability, of control",62%
same,viability at 1 µM,"[2]; Homo sapiens, A-375, 72 h, DOX 0.5 μM co-treatment with KK-11 (1 μM), 72 h, A375, read-out: cell viability, of control",40%
same,viability at 1 µM,"[2]; Homo sapiens, A-375, 72 h, DOX 1 μM alone, 72 h, A375, read-out: cell viability (cells survived)",24%
same,viability at 1 µM,"[2]; Homo sapiens, A-375, 72 h, DOX 1 μM in combination with KK-11 (1 μM), 72 h, A375, read-out: cell viability, of control",14%
same,change of DOX cytotoxicity,"[2]; KK-11 and DOX sequentially (KK-11 pretreatment 4 h, washed, then DOX 72 h)",failed to produce any changes on DOX cytotoxicity
RGEPAYQGRFL [Peptide 18],Fluorescence Ratio,[1],1.24
AGRKLDSKA [Peptide 38],Fluorescence Ratio,[1],1.39
YHWYGYTPENVI [Peptide 34],Fluorescence Ratio,[1],1.36
VivoTag- Aβ-VPWxEPAYQrFL [VivoTag-KK-11],brain penetration,[3]; ex vivo imaging,no brain penetration was observed
same,"time by which cleared from other organs (lungs, heart, spleen)",[3]; ex vivo imaging,≤ 6 h
same,time detected in kidneys,[3]; ex vivo imaging,up to 48 h
same,time at which fluorescence is evident in tumor xenografts,"[3]; ex vivo imaging, 8 μg per mouse, tail vein",≤ 5 min
same,time by which distributed to the xenograft tumor,[3]; [4],≤ 30 min
same,time fluorescence remained detectable in tumor xenografts,[3]; [4],25 h
ALSDGKRKA [Peptide 40],Fluorescence Ratio,[1],1.23
YHWYGYTPANVI [Peptide 30],Fluorescence Ratio,[1],1.30
YHWYGATPQNVI [Peptide 27],Fluorescence Ratio,[1],1.19
ADRSKGKLA [Peptide 39],Fluorescence Ratio,[1],1.27
GRRPRPRPRPWW [Peptide 3],Fluorescence Ratio,[1],1.50
CLADGKRKC [Peptide 43],Fluorescence Ratio,[1],1.26
GRAPRPRPRP [Peptide 7],Fluorescence Ratio,[1],1.47
ALSGKRKC [Peptide 41],Fluorescence Ratio,[1],1.32
CLSDGKRKA [Peptide 49],Fluorescence Ratio,[1],1.57
YHAYGYTPQNVI [Peptide 25],Fluorescence Ratio,[1],1.28
EPAAYQRFTA [Peptide 13],Fluorescence Ratio,[1],1.39
YHWYGYTAQNVI [Peptide 29],Fluorescence Ratio,[1],1.32
YHWYGYTPQAVI [Peptide 31],Fluorescence Ratio,[1],1.33
YHWYGYTPQNAI [Peptide 32],Fluorescence Ratio,[1],1.29
CLSDGKRRC [Peptide 52],Fluorescence Ratio,[1],1.27
YHWAGYTPQNVI [Peptide 26],Fluorescence Ratio,[1],1.29
CLSDGKRKC [Peptide 37],Fluorescence Ratio,[1],1.29
GARPRPRPRP [Peptide 6],Fluorescence Ratio,[1],1.37
FVPWLEAPYA [Peptide 15],Fluorescence Ratio,[1],1.61
CLSDGKAKC [Peptide 47],Fluorescence Ratio,[1],1.27
GRRPAPRPRP [Peptide 8],Fluorescence Ratio,[1],1.57
YHWYGYAPQNVI [Peptide 28],Fluorescence Ratio,[1],1.26
CLSDAKRKC [Peptide 45],Fluorescence Ratio,[1],1.22
RGDAAYQRFL [Peptide 16],Fluorescence Ratio,[1],1.47
YGPWYNHYITQV [Peptide 22],Fluorescence Ratio,[1],1.28
YHWYGYTPQKVI [Peptide 36],Fluorescence Ratio,[1],1.23
YAWYGYTPQNVI [Peptide 24],Fluorescence Ratio,[1],1.15
GRRPRPAPRP [Peptide 9],Fluorescence Ratio,[1],1.51
WXEAAYQRFL [Peptide 12],Fluorescence Ratio,[1],1.31
GRRPRPRPRPWWW [Peptide 4],Fluorescence Ratio,[1],1.46
CLSDGARKC [Peptide 46],Fluorescence Ratio,[1],1.35
CLSEGKRKC [Peptide 50],Fluorescence Ratio,[1],1.38
RGDPAYQGRFL [Peptide 19],Fluorescence Ratio,[1],1.35
GRRPRPRPRPWWWW [Peptide 5],Fluorescence Ratio,[1],1.43
GRRPRPRPAP [Peptide 10],Fluorescence Ratio,[1],1.31
YHWYGYTPQDVI [Peptide 35],Fluorescence Ratio,[1],1.35
RGEPAYQRFL [Peptide 17],Fluorescence Ratio,[1],1.30
